Measurements published in patent US20250032476A1, “ALPHA-2A ADRENERGIC RECEPTOR MODULATORS AND USES THEREOF” (The Regents of the University of California, priority 2021, published 2025).
Where two headings read alike, the source gives them in different places.

Experiments:
human α2AAR = human α2AAR (Homo sapiens (Human), UniProt P08913); assay: Radioligand competition binding to human α2AAR (HEK293T membranes, [3H]RX82,1002); conditions: human α2AAR
α2AAR F427^7.39 mutant = α2AAR F427^7.39 mutant (Homo sapiens (Human), UniProt P08913, F427A); assay: Gi activation (BRET) at α2AAR F427^7.39 mutant; assay type: cell-based
Chain of α2AAR F427^7.39 mutant (P08913 whole entry F427A): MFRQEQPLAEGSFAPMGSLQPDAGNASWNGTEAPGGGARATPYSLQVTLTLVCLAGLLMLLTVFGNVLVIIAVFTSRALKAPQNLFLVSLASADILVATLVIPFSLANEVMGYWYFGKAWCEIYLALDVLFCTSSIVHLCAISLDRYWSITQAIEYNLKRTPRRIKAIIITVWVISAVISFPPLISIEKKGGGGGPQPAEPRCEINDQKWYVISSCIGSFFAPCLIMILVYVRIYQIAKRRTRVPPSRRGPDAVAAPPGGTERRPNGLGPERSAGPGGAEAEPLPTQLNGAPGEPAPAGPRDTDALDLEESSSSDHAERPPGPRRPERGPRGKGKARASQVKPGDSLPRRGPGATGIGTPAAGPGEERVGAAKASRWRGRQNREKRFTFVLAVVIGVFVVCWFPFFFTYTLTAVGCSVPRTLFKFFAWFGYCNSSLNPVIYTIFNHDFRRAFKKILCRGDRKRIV
Protocol: Investigating the sensitivity of selected ligands to the receptor mutants α2AAR-D128^3.32A, α2AAR-D128^3.32T, α2AAR-D128^3.32L, α2AAR-S215^5.42A, α2AAR-Y409^6.55A, α2AAR-Y409^6.55T, α2AAR-Y409^6.55F, α2AAR-F427^7.39F, α2AAR-Y431^7.43A, and α2AAR-Y431^7.43F was determined by monitored G protein stimulation as described above transfecting the appropriate receptor together with Gαi1-RLucII and Gβ1/Gγ1-GFP10. […] Three to ten experiments were done in duplicate.
The sensitivity of selected ligands to the receptor mutants α2AAR-D128^3.32A, α2AAR-D128^3.32T, α2AAR-D128^3.32L, α2AAR-S215^5.42A, α2AAR-Y409^6.55A, α2AAR-Y409^6.55T, α2AAR-Y409^6.55F, α2AAR-F427^7.39F, α2AAR-Y431^7.43A, and α2AAR-Y431^7.43F was monitored by G protein activation as described above transfecting the appropriate receptor together with Gαi1-RLucII and Gβ1/Gγ2-GFP10. […] Similarly, the effect of the α2AAR-D128^3.32A, α2AAR-S215^5.42A, α2AAR-Y409^6.55A, α2AAR-Y409^6.55F, α2AAR-F427^7.39F, α2AAR-Y431^7.43A, and α2AAR-Y431^7.43F mutations on arrestin recruitment was evaluated as described above transfecting the appropriate receptor together with CAAX-rGFP, GRK2 and β-arrestin-2-RLucII. Data was analyzed as ligand induced changes in BRET compared to vehicle (deltaBRET). Three to seven experiments were done in duplicate.

[1] = Pharmacokinetics in mice (plasma, brain, CSF); assay type: in vivo
[2] = mouse, plasma, ip, I.P. 10 mg/kg

Chain of human α2AAR (P08913 whole entry): as the sequence (P08913 whole entry F427A) above, with A427F counted along it

Q: With Fc1cccc2c(Nc3ccncc3)cccc12 [Compound 7075, N-(5-fluoronaphthalen-1-yl)pyridin-4-amine] as the compound, how does the Ki (human α2AAR; mean ± SEM (Table 3), read-out: Ki) read?
A: 37 ± 5.1 nM

Q: What about the Ki (human α2AAR; mean ± s.e.m., read-out: Ki for α2AAR) of the same compound?
A: 37 ± 5.1 nM

Q: What about the “Gi activity at F427^7.39 substitution” value (α2AAR F427^7.39 mutant) of the same compound?
A: eliminated

Q: And the “Fold greater CSF Cmax than PS75” value ([1]; 10 mg/kg i.p.)?
A: 4 fold

Q: And the half-life ([1]; C57BL/6N ('9087, '7075, '4622), CD-1 (PS75), mouse, CSF, ip, I.P. 10 mg/kg, read-out: T ½ CSF (converted))?
A: 13.2 min

Q: And the “AUC Brain” value ([1]; I.P. 10 mg/kg)?
A: 814000 ng·min/mL

Q: What about the “AUC CSF” value ([1]; I.P. 10 mg/kg) of the same compound?
A: 12000 ng·min/mL

Q: What about the “Cmax Brain” value ([1]; I.P. 10 mg/kg) of the same compound?
A: 8570 ng/mL

Q: And the “Cmax CSF” value ([1]; I.P. 10 mg/kg)?
A: 412 ng/mL

Q: And the half-life ([1]; mouse, brain, ip, I.P. 10 mg/kg, read-out: T ½ Brain (converted))?
A: 43.8 min

Q: And the AUC [1, 2]?
A: 952 ng·h/mL

Q: And the Cmax [1, 2]?
A: 694 ng/mL

Q: What about the half-life ([1]; mouse, plasma, ip, I.P. 10 mg/kg, read-out: T ½ Plasma (converted)) of the same compound?
A: 38.4 min
